Source: publication PMC11574045, “A cofactor-induced repressive type of transcription factor condensation can be induced by synthetic peptides to suppress tumorigenesis” (The EMBO Journal, 2024)
Values joined by “and” are separate entries in the source; they are usually repeats but may differ in a detail not shown here. Identical values can stand only once. Ends that are not written are not given here.

What was measured:
[1] = tested on: trypsin, actinase E, thermolysin, proteinase K, chymotrypsin-α; assay: Stability of peptides treated with proteases (gel); type: in vitro ADME; conditions: 30 °C for 1 h, gel read-out
Text: To improve the stability and bioavailability of glup, we subjected it to disulfide-cyclization and C-terminal amidation to generate a macrocyclic version of the peptide and denoted it as GLUP (Fig. 5D). […] However, there were no significant differences in solubility, permeability, and TEAD4-binding affinity between GLUP and glup (Fig. 5F and Appendix Figs. S5F–H). […] These droplets rapidly dissolved when exposed to increased concentrations of NaCl (Fig. 5G, right).
Appendix Figure S5. Optimization of the Linker Peptide
A. Fluorescence polarization (FP) assay to detect the interaction of purified TEAD4 protein with FA M-labeled glup. mP, millipolarization (FP values). B. Microscale […]
protein with glup or glupmut. Kd values are shown. glupmut, an interaction-dead control peptide with the sequence […]. C. Crosslinking assay of TEAD4 […]
oligomerization in the presence of glup or glupmut after DSS treatment. D. Crosslinking assay of TEAD4 oligomerization in the presence of glup or GLUP with or without DSS treatment. E. Gels assessing protein stability levels of glup and GLUP after they were treated with indicated proteases. TR, trypsin; AE, actinase E; TH, thermolysin; PK, proteinase K; CH-α, chymotrypsin-α. […]
(right). […] The data were analyzed using one-way ANOVA, followed by the Tukey’s post-hoc test. *, p < 0.05; **, […]

TEAD4 = target: T1, TEAD4 (Homo sapiens, UniProt Q15561); assay: In vitro LLPS (droplet formation) assay; type: biochemical
T1 construct: His; made in house; host or cells: Escherichia coli BL21(DE3)
T1 sequence (Q15561 whole entry): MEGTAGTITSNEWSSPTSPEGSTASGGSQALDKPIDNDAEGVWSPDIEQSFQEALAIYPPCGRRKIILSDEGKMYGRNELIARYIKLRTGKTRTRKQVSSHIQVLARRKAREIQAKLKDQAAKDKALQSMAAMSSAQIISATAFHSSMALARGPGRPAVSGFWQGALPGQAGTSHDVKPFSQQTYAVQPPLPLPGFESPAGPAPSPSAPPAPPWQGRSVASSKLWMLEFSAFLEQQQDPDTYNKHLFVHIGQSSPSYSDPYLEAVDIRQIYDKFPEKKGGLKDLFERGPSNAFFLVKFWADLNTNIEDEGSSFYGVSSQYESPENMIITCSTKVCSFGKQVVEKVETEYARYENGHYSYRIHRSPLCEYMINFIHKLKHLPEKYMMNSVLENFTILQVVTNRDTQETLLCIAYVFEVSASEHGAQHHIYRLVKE
Protocol: LLPS was induced at room temperature by diluting proteins and NaCl to specified concentrations (20, 150, 500 mM). After subsequent mixing, 10 μl of the reaction solution were gently transferred onto a 20 mm glass-bottomed dish (NEST, 801001) for differential interference contrast (DIC) imaging performed using a Zeiss LSM 880 confocal microscope equipped with a 20× water immersion objective lens. Unless otherwise indicated (e.g., in the figure legend), the final concentration of purified protein used for in vitro LLPS assays was 40 μM.

[2] = tested on: GFP-TEAD4 condensates in HEK293FT cells; assay: GFP-TEAD4 condensate imaging, condensed fraction in cells; type: cell-based; conditions: HEK293FT, GLUP 10 μg/ml (5 μM) 12 h; individual cells, n = 9
HGC-27 cells = assay: Live-cell imaging of FAM-GLUP cellular entry; type: cell-based, human; conditions: FAM-GLUP 10 μg/ml (5 μM), HGC-27 live cells
Protocol: (§1) To confirm cellular entry of GLUP, we performed immunostaining of live cells treated with a fluorescein-labeled version of the peptide (FAM-GLUP). […] We then examined the potential effect of GLUP on TEAD4-mediated perturbation of DNA conformation.
(A) Representative live-cell images of HGC-27 cells treated with FAM (a fluorescent moiety)-labeled GLUP for indicated periods of time. FAM-GLUP: 10 μg/ml (5 μM). Scale bar, 10 μm. (B) Representative DAPI staining images of DNA showing its organization and appearance in the presence or absence of TEAD4 and GLUP as indicated. GLUP: 1 μg/ml (0.5 μM). Scale bar, 100 nm. (C) Representative N-SIM images of chromatin in GLUP-treated cells stained with DAPI. GLUP, 1 μg/ml (0.5 μM). Scale bar, 100 nm. (D) Representative images showing co-localization of GFP-TEAD4 with H3K27me3 in HEK293FT cells treated with GLUP together with 1,6-Hex. Scale bar, 1 μm. (E) Average enrichment profiles of H3K27me3 in GLUP-treated WT or TEAD4KO HGC-27 cells, stratified by gene length (three biological replicates, n = 3). Normalization of coverage using RPKM was performed over the genes and flanking region 1 kb in length. GLUP: 10 μg/ml (5 μM). […] The interval scale was 10 in both cases. See also Appendix Fig. S6. Source data are available online for this figure.

AGS cells = type: cell-based, human; conditions: 48 h
Protocol: For cell viability assays, cells were seeded into 96-well plates overnight to attach them to the plates, and then treated with GLUP for 48 h. Cells incubated for indicated periods of time were analyzed using an ATP-based CellTiter-Lumi^TM Plus kit (Beyotime) according to the manufacturer’s instructions. The intracellular ATP contents were measured using a BioTek Synergy^TM NEO multi-detector microplate reader (Thermo). Cell viability was calculated using the equation cell viability (%) = [[value (test) − value (blank)] × [value (control) − value (blank)]] −1 × 100.

MNU-induced GC tumors = assay: MNU-induced gastric cancer mouse model; type: in vivo; set-up: Tumor area, GLUP+ / Tumor area, GLUP++: unit not given here
Protocol: For the model involving N-nitroso-N-methylurea (MNU)-induced GC, 8-week-old C57BL/6 mice received 3 cycles of MNU (TRC, Toronto, Canada) in drinking water. For each cycle, drinking water containing 240 μg/ml MNU was served to the mice for 1 week, and then normal drinking water the next week. After 19 weeks of MNU administration, mice were randomized to receive GLUP via intraperitoneal injection (i.p.) biweekly for the following 5 weeks (n = 8/group). After 24 weeks, mice were sacrificed for subsequent analysis. The tumor volume per stomach was measured.

[3] = tested on: WT or TEAD4KO HGC-27 cells; assay: Cut&Tag; type: cell-based, human; conditions: GLUP 10 μg/ml (5 μM)
TEAD4-DNA = target: T2, TEAD4-DNA (Homo sapiens, UniProt Q15561); assay: DAPI imaging of M-CAT DNA organization with purified proteins; type: biochemical; conditions: GLUP 1 μg/ml (0.5 μM)
T2 construct: His; made in house; host or cells: Escherichia coli BL21(DE3)
T2 sequence (Q15561 whole entry): as above
Protocol: LLPS is considered as principle for chromosome compartmentalization and condensation (Hildebrand and Dekker, [2020]; Shin et al, [2018]). […] To test this hypothesis, we used confocal microscopy to observe the morphology of M-CAT DNA (Fig. 4D). […] When VGLL4 protein was added into the mixture, the DNA chains appeared more aggregated and tangled (Fig. 4D).
as §1

RRVCVHFHFSLSLR-NH2 (C-terminus assumed) [glup]
Stability towards various proteases [1]: almost completely digested | Stability towards various proteases ([1]; listed as GLUP): remained intact | Turbidity of TEAD4 solution after GLUP (TEAD4; PEG solution, vials before and after GLUP): high turbidity in a PEG solution | TEAD4 droplet formation (TEAD4; mCherry-TEAD4 with FAM-GLUP 20, 40, 80 µM): strongly promoted TEAD4 droplet formation | Condensed fraction of GFP-TEAD4 [2]: 25.1852% and 50.001% and 27.6986% and 34.6228% and 22.4908% and 43.1106% and 47.5218% and 38.4928% and 44.4447% | Cellular localisation (HGC-27 cells; 30 min): in the cytoplasm but outside of the nucleus | Cellular localisation (HGC-27 cells; 80 min): throughout in the cell including the nucleus | IC50 (AGS cells): 34 µg/mL | Average tumor area vs control (MNU-induced GC tumors; MNU-induced GC mice, 5-week GLUP treatment): much smaller than that in control mice | Gastric mucosa histology (MNU-induced GC tumors; MNU-induced GC mice, high dose GLUP 5 mg/kg): almost normal gastric mucosa | Tumor area, GLUP+ (MNU-induced GC tumors; MNU-induced GC, C57BL/6 mice, 1 mg/kg GLUP biweekly for 5 weeks, individual mice (source data Fig 7B), 1 mg/kg): 28.125 and 40.5 and 20.5 and 4.5 and 6.5 and 16.2 | Tumor area, GLUP++ (MNU-induced GC tumors; MNU-induced GC, C57BL/6 mice, 5 mg/kg GLUP biweekly for 5 weeks, individual mice (source data Fig 7B), 5 mg/kg): 4.5 and 2.5315 and 0.5 and 0 | H3K27me3 signals at 3 kb regions flanking TSS ([3]; TEAD4-depleted HGC-27 cells): no such effect was detected | H3K27me3 signals at 3 kb regions flanking TSS ([3]; WT HGC-27 cells): dramatically strengthened the signals of H3K27me3 | Effect on TEAD4-mediated DNA conformation (TEAD4-DNA): strongly promoted TEAD4-mediated formation of DNA aggregations and tangles
